The source made the active and inactive calls. No cut-off for these calls is given here.
Columns and labels:
Candida albicans = assay: Antifungal activity against Candida albicans DSM 1386 after 14 to 16 hrs by resazurin reduction assay; assay type: functional, organism-based
Xanthomonas campestris = assay: Antibacterial activity against Xanthomonas campestris DSM 2405 after 14 to 16 hrs by resazurin reduction assay; assay type: functional, organism-based
[1] = molecular target: Glycogen synthase kinase-3 beta (Homo sapiens, UniProt P49841); assay: Inhibition of recombinant GSK3beta by KinaseGlo assay
Nakaseomyces glabratus = assay: Antifungal activity against Candida glabrata DSM 6425 after 14 to 16 hrs by resazurin reduction assay; assay type: functional, organism-based
NIH3T3 = assay: Cytotoxicity against mouse NIH/3T3 cells after 24 hrs by CellTiter-Blue assay; assay type: functional, cell-based; settings: NIH3T3, 24 h
Bacillus subtilis = assay: Antibacterial activity against Bacillus subtilis DSM 347 after 14 to 16 hrs by resazurin reduction assay; assay type: functional, organism-based
[2] = molecular target: 3',5'-cyclic-AMP phosphodiesterase 4B (Homo sapiens, UniProt Q07343); assay: Inhibition of human recombinant PDE4B2 by HTS cAMP assay
HT-29 = assay: Cytotoxicity against human HT-29 cells after 24 hrs by CellTiter-Blue assay; assay type: functional, cell-based; settings: HT-29, 24 h
Cutibacterium acnes = assay: Antibacterial activity against Propionibacterium acnes DSM 1897 after 48 hrs by resazurin reduction assay; assay type: functional, organism-based
Mammaliicoccus lentus = assay: Antibacterial activity against Staphylococcus lentus DSM 6672 after 14 to 16 hrs by resazurin reduction assay; assay type: functional, organism-based
HepG2 = assay: Cytotoxicity against human HepG2 cells after 24 hrs by CellTiter-Blue assay; assay type: functional, cell-based; settings: HepG2, 24 h

3',5'-cyclic-AMP phosphodiesterase 4B, sequence (Q07343 whole entry): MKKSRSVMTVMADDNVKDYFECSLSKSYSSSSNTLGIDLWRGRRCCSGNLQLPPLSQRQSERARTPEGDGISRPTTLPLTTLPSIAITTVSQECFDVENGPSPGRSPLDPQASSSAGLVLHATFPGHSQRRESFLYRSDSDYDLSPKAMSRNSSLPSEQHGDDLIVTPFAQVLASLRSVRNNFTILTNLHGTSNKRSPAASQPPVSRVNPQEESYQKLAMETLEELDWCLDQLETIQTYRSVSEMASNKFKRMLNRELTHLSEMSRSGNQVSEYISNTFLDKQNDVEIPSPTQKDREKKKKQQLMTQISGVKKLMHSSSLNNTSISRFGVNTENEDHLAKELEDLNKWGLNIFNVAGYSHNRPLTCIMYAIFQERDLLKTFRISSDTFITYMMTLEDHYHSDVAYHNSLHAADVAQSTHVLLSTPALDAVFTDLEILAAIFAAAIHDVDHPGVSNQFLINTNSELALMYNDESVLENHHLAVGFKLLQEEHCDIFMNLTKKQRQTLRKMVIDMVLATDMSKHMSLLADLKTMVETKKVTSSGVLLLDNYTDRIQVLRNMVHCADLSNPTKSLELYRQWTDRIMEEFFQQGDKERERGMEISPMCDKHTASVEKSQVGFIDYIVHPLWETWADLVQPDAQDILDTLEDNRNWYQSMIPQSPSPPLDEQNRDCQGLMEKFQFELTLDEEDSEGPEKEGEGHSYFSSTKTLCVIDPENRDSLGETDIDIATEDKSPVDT
Glycogen synthase kinase-3 beta, sequence (P49841 whole entry): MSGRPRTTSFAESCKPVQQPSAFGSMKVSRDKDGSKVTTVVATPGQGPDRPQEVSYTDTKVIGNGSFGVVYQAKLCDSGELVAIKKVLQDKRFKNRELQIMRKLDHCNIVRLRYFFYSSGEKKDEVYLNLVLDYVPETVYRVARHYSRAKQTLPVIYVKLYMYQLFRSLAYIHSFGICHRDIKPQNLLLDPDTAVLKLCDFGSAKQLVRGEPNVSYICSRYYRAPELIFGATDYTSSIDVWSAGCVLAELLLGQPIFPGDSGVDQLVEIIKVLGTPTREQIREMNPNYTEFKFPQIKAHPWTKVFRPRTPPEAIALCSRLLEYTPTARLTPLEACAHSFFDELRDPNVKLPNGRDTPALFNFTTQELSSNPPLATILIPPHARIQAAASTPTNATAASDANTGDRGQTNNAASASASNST

IC50 [1]: 2170 nM | IC50 [2]: 480 nM
Structure (SMILES): CC(=O)O[C@H]1C[C@@H](O)C[C@H](O)C[C@@H](O)[C@@H]2O[C@H]2[C@@H](C)[C@@H]([C@@H](C)[C@@H](O)[C@H](C)[C@@H](O)[C@@H](C)[C@@H](C)O[C@H]2CC[C@H](O[C@@H]3CC[C@@H](OC(=O)[C@H](C)[C@@H](O)/C(C)=C/c4ccc5c(c4)C(=O)C=CC5=O)[C@H](C)O3)[C@H](C)O2)OC(=O)/C=C/[C@H](C)[C@@H](O)C[C@H](O)/C=C/CC[C@@H](C)[C@@H](O)[C@H](O)[C@@]2(O)O[C@@H](C1)C[C@@H](O)[C@@H]2O [LANGKOLIDE]
IC50 (Candida albicans): 1230 nM | Activity (Xanthomonas campestris): inactive | IC50 (Nakaseomyces glabratus): 1000 nM | IC50 (NIH3T3): 490 nM | Activity (Bacillus subtilis): inactive | IC50 (HT-29): 1380 nM | Activity (Cutibacterium acnes): inactive | Activity (Mammaliicoccus lentus): inactive | IC50 (HepG2): 2410 nM

From ChEMBL document CHEMBL2062475, “Langkolide, a 32-membered macrolactone antibiotic produced by Streptomyces sp. Acta 3062” (J Nat Prod, 2012)
